{"source": "patent US20170313665A1", "about": "“HYDROXYALKYL-SUBSTITUTED PHENYLTRIAZOLE DERIVATIVES AND USES THEREOF” (BAYER PHARMA AKTIENGESELLSCHAFT, priority 2014, published 2017)", "key": {"[1]": {"system": "Wistar rats", "experiment": "Diuresis investigations in conscious rats kept in metabolism cages", "format": "in vivo, rat", "protocol": "Wistar rats (220-450 g body weight) are kept with free access to feed (Altromin) and drinking water. During the experiment, the animals are kept with free access to drinking water for 4 to 8 or up to 24 hours individually in metabolism cages suitable for rats of this weight class (Tecniplast Deutschland GmbH, D-82383 Hohenpeiβenberg). At the beginning of the experiment, the animals are administered the test substance in a volume of 1 to 3 ml/kg body weight of a suitable solvent by means of gavage into the stomach. Control animals only receive solvent. Controls and substance tests are carried out in parallel on the same day. Control groups and substance-dose groups each consist of 4 to 8 animals. During the experiment, the urine excreted by the animals is collected continuously in a receiver at the base of the cage. The volume of urine per time unit is determined separately for each animal, and the concentration of urinary electrolytes is measured by standard methods of flame photometry. Before the beginning of the experiment, the body weight of the individual animals is determined."}, "[2]": {"molecular_target": "T1, human V1a receptor (Homo sapiens, UniProt P37288)", "T1 construct": "expressed in transfected cells; host or cells: CHO K1 (ATCC), also stably transfected with a modified aequorin", "T1 sequence (P37288 whole entry)": "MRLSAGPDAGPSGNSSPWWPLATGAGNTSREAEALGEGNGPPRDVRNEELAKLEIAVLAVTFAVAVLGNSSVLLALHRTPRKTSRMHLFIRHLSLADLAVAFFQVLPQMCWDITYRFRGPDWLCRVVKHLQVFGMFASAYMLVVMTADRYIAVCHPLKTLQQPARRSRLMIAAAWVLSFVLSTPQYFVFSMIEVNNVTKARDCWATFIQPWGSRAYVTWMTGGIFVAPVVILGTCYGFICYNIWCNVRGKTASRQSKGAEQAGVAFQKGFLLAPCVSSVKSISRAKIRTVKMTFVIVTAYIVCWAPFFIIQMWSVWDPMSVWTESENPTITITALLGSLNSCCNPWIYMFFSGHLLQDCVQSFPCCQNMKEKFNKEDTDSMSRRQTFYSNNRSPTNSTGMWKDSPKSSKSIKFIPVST", "experiment": "Cellular in vitro assay for vasopressin receptor activity, V1a receptor cell line (aequorin luminescence)", "format": "cell-based", "conditions": "CHO cell line transfected with human V1a receptor; [Arg8]-vasopressin at EC50; read-out: IC50 hV1a", "protocol": "The identification of agonists and antagonists of the V1a and V2 vasopressin receptors from humans, rats and dogs as well as the quantification of the activity of the compounds of the invention is carried out using recombinant cell lines. These cell lines originally derive from a hamster's ovary epithelial cell (Chinese Hamster Ovary, CHO K1, ATCC: American Type Culture Collection, Manassas, Va. 20108, USA). The test cell lines constitutively express the human, rat or dog V1a or V2 receptors. […] The resulting vasopressin receptor cells react to stimulation of the recombinantly expressed V1a receptors by intracellular release of calcium ions, which can be quantified by the resulting photoprotein luminescence. […] The bioluminescence of the cell lines is detected using a suitable luminometer [Milligan G, Marshall F, Rees S, Trends in Pharmacological Sciences 17, 235-237 (1996)].\nOn the day before the assay, the cells are plated out in culture medium (DMEM/F12, 2% FCS, 2 mM glutamine, 10 mM HEPES, 5 μg/ml coelenterazine) in 384-well microtiter plates and kept in a cell incubator (96% humidity, 5% v/v CO2, 37° C.). […] The resulting light signal is measured immediately in the luminometer. […]"}, "[3]": {"conditions": "dosage p.o. 0.3 mg/kg, 0.3 mg/kg"}}}
{"smiles": "COc1ccccc1-n1nc(Cn2nc(-c3ccc(Cl)cc3)n(C[C@H](O)C(F)(F)F)c2=O)nc1C(C)O", "note": "(single isomer, unassigned) [Example 11]", "values": [{"measurement": "Urinary volume [% vs. control = 100%]", "setting": "[1]; [3]", "result": 159, "unit": "% vs. control = 100%"}, {"measurement": "Urinary volume [% vs. control = 100%]", "setting": "[1]; dosage p.o. 3.0 mg/kg, 3 mg/kg", "result": 443, "unit": "% vs. control = 100%"}]}
{"smiles": "COc1ccccc1-n1nc(Cn2nc(-c3ccc(Cl)cc3)n(C[C@H](O)C(F)(F)F)c2=O)nc1C(C)O", "note": "(single isomer, unassigned) [Example 12]", "values": [{"measurement": "Urinary volume [% vs. control = 100%]", "setting": "[1]; [3]", "result": 96, "unit": "% vs. control = 100%"}, {"measurement": "Urinary volume [% vs. control = 100%]", "setting": "[1]; dosage p.o. 3.0 mg/kg, 3 mg/kg", "result": 323, "unit": "% vs. control = 100%"}]}
{"smiles": "CC(O)c1nc(Cn2nc(-c3ccc(Cl)cc3)n(C[C@H](O)C(F)(F)F)c2=O)nn1-c1cc(F)cc(Cl)c1", "note": "(single isomer, unassigned) [Example 14]", "values": [{"measurement": "Urinary volume [% vs. control = 100%]", "setting": "[1]; dosage p.o. 1.0 mg/kg", "result": 753, "unit": "% vs. control = 100%"}]}
{"smiles": "CC(O)c1nc(Cn2nc(-c3ccc(Cl)cc3)n(C[C@H](O)C(F)(F)F)c2=O)nn1-c1cc(F)cc(Cl)c1", "note": "(single isomer, unassigned) [Example 15]", "values": [{"measurement": "Urinary volume [% vs. control = 100%]", "setting": "[1]; dosage p.o. 0.3 mg/kg", "result": 412, "unit": "% vs. control = 100%"}, {"measurement": "Urinary volume [% vs. control = 100%]", "setting": "[1]; dosage p.o. 3.0 mg/kg", "result": 1085, "unit": "% vs. control = 100%"}]}
{"smiles": "CC(O)c1nc(Cn2nc(-c3ccc(Cl)cc3)n(C[C@H](O)C(F)(F)F)c2=O)nn1-c1cc(F)ccc1Cl", "note": "(single isomer, unassigned) [Example 59]", "values": [{"measurement": "IC50", "setting": "[2]", "result": 0.5, "unit": "nM"}]}
{"smiles": "CC(O)c1nc(Cn2nc(-c3ccc(Cl)cc3)n(C[C@H](O)C(F)(F)F)c2=O)nn1-c1cc(F)ccc1Cl", "note": "(single isomer, unassigned) [Example 60]", "values": [{"measurement": "IC50", "setting": "[2]", "result": 0.5, "unit": "nM"}]}
{"smiles": "C[C@H](O)c1nc(Cn2nc(-c3ccc(Cl)cc3)n(C[C@H](O)C(F)(F)F)c2=O)nn1-c1cccc(F)c1", "note": "[Example 76, 5-(4-Chlorophenyl)-2-({1-(3-fluorophenyl)-5-[(1 S)-1-hydroxyethyl]-1H-1,2,4-triazol-3-yl}methyl)-4-[(2S)-3,3,3-trifluoro-2-hydroxypropyl]-2,4-dihydro-3H-1,2,4-triazol-3-one]", "values": [{"measurement": "Urinary volume [% vs. control = 100%]", "setting": "[1]; dosage p.o. 3.0 mg/kg", "result": 1257, "unit": "% vs. control = 100%"}]}
{"smiles": "C[C@H](O)c1nc(Cn2nc(-c3ccc(Cl)cc3)n(C[C@H](O)C(F)(F)F)c2=O)nn1-c1cccc(Cl)c1", "note": "[Example 79, 5-(4-Chlorophenyl)-2-({1-(3-chlorophenyl)-5-[(1S)-1-hydroxyethyl]-1H-1,2,4-triazol-3-yl}methyl)-4-[(2S)-3,3,3-trifluoro-2-hydroxypropyl]-2,4-dihydro-3H-1,2,4-triazol-3-one]", "values": [{"measurement": "Urinary volume [% vs. control = 100%]", "setting": "[1]; dosage p.o. 3.0 mg/kg", "result": 1312, "unit": "% vs. control = 100%"}]}
{"smiles": "C[C@@H](O)c1nc(Cn2nc(-c3ccc(Cl)cc3)n(C[C@H](O)C(F)(F)F)c2=O)nn1-c1ccccc1Cl", "note": "[Example 83, 5-(4-Chlorophenyl)-2-({1-(2-chlorophenyl)-5-[(1R)-1-hydroxyethyl]-1H-1,2,4-triazol-3-yl}-methyl)-4-[(2S)-3,3,3-trifluoro-2-hydroxypropyl]-2,4-dihydro-3H-1,2,4-triazol-3-one]", "values": [{"measurement": "Urinary volume [% vs. control = 100%]", "setting": "[1]; dosage p.o. 3.0 mg/kg", "result": 1094, "unit": "% vs. control = 100%"}]}
